Among the data in US10584115B2, “Substituted pyridine and pyrazine BMI-1 inhibitors” (PTC Therapeutics, Inc., priority 2013, dated 2020) are EC50 and melting point values, retold here.

Like-named read-outs stand apart in the source and are kept apart here.

One data set relates to Bmi-1 protein. Description: Sandwich ELISA Assay (Bmi-1 protein level in HT-1080 cells after compound treatment). The class given is cell-based. An outline of the steps: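 HT-1080 cells exposed to compounds for 40–48 h at 37 °C (0.5% DMSO final), then lysed. Bmi-1 in lysates measured by sandwich ELISA (mouse monoclonal capture, rabbit anti-Bmi-1 detection, HRP anti-rabbit, TMB), read at OD450 with OD570 reference against a recombinant Bmi-1 standard curve (0–8000 pg/mL).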

The mark [1] stands for this setting: Table 1, Bmi-1 sandwich ELISA, read-out: ELISA EC50 value for Bmi-1 protein.

In the case of `CC(=O)n1nc(C)c(-c2cncc(Nc3ccc(C(F)(F)F)cc3)n2)c1C` [compound 277, 1-[3,5-dimethyl-4-(6-{[4-(trifluoromethyl)phenyl]amino}pyrazin-2-yl)-1H-pyrazol-1-yl]ethanone], the melting point fell in the range of 199 to 200 °C. For the same molecule, in the data set with Bmi-1 protein (setting [1]), the EC50 was in the range of 100 to 3000 nM.

On to `Cc1ccc(Nc2cncc(-c3c(C)noc3C)n2)cc1` [compound 635, 6-(3,5-dimethyl-1,2-oxazol-4-yl)-N-(4-methylphenyl)pyrazin-2-amine], for which the melting point was 186 to 188 °C. For the same molecule, the EC50 in the data set on Bmi-1 protein (setting [1]) lay in the range of 1 to 10 nM.

`Cc1nc2ccc(F)cc2n1-c1cncc(Nc2ccc(OC(F)F)cc2)n1` [compound 229, N-[4-(difluoromethoxy)phenyl]-6-(6-fluoro-2-methyl-1H-benzimidazol-1-yl)pyrazin-2-amine]: the melting point lay in the range of 200 to 202 °C. For the same molecule, the EC50 in the data set on Bmi-1 protein (setting [1]) fell in the range of 1 to 10 nM.

The molecule `Cc1nn(C)c(C)c1-c1cc(C#N)cc(Nc2ccc(OC(F)(F)F)cc2)n1` [compound 265, 2-{[4-(trifluoromethoxy)phenyl]amino}-6-(1,3,5-trimethyl-1H-pyrazol-4-yl)pyridine-4-carbonitrile] gave a melting point of 135 to 136 °C. In addition, the 50% effective concentration (EC50) with Bmi-1 protein (setting [1]) was 10 to 100 nM.

The molecule `Fc1ccc2nc(C(F)F)c(-c3cncc(Nc4ccc(C(F)(F)F)cc4)n3)n2c1` [compound 472, 6-[2-(difluoromethyl)-6-fluoroimidazo[1,2-a]pyridin-3-yl]-N-[4-(trifluoromethyl)phenyl]pyrazin-2-amine] showed a melting point of 180 to 182 °C. The EC50 in the data set on Bmi-1 protein (setting [1]) fell in the range of 1 to 10 nM.

The molecule `Cc1cccc(Nc2cncc(-n3c(C)nc4ccc(F)cc43)n2)c1` [compound 560, 6-(6-fluoro-2-methyl-1H-benzimidazol-1-yl)-N-(3-methylphenyl)pyrazin-2-amine] yielded a melting point of 173 to 174 °C. Moreover, in the data set with Bmi-1 protein (setting [1]), the EC50 fell in the range of 100 to 3000 nM.

The molecule `Cc1nc2ccc(F)cn2c1-c1cc(C#N)cc(Nc2ccc(C(F)(F)F)cc2)n1` [compound 247, 2-(6-fluoro-2-methylimidazo[1,2-a]pyridin-3-yl)-6-{[4-(trifluoromethyl)phenyl]amino}pyridine-4-carbonitrile] had a melting point of 241 to 243 °C. For the same molecule, the EC50 in the data set on Bmi-1 protein (setting [1]) was in the range of 1 to 10 nM.

`FC(F)(F)c1ccc(Nc2cncc(-c3cccc4nc(C5CC5)cn34)n2)cc1` [compound 89, 6-(2-cyclopropylimidazo[1,2-a]pyridin-5-yl)-N-[4-(trifluoromethyl)phenyl]pyrazin-2-amine] yielded a melting point of 266 to 268 °C. For the same molecule, the EC50 in the data set on Bmi-1 protein (setting [1]) lay in the range of 100 to 3000 nM.

In turn, `COc1ccc(Nc2cccc(-c3c(C(F)(F)F)nc4ccc(OC)cn34)n2)cc1` [compound 104, N-(4-methoxyphenyl)-6-[6-methoxy-2-(trifluoromethyl)imidazo[1,2-a]pyridin-3-yl]pyridin-2-amine] yielded a melting point of 139 to 140 °C. Further, the EC50 in the data set on Bmi-1 protein (setting [1]) fell in the range of 10 to 100 nM.

`Cc1nc2ccc(F)cn2c1-c1cc(C#N)cc(Nc2ccc(OC(F)F)cc2)n1` [compound 248, 2-{[4-(difluoromethoxy)phenyl]amino}-6-(6-fluoro-2-methylimidazo[1,2-a]pyridin-3-yl)pyridine-4-carbonitrile] yielded a melting point of 221 to 223 °C. In addition, the 50% effective concentration (EC50) with Bmi-1 protein (setting [1]) fell in the range of 1 to 10 nM.

Turning to `Cc1cn2c(-c3cncc(Nc4ccc(OC(F)F)cc4)n3)c(C)nc2c(C)n1` [compound 489, N-[4-(difluoromethoxy)phenyl]-6-(2,6,8-trimethylimidazo[1,2-a]pyrazin-3-yl)pyrazin-2-amine], the melting point is 140 to 141 °C. For the same molecule, the EC50 in the data set on Bmi-1 protein (setting [1]) lay within 1 to 10 nM.

Consider `COc1ccc(Nc2cncc(-c3cccc4nc(C5CCC5)cn34)n2)cc1` [compound 116, 6-(2-cyclobutylimidazo[1,2-a]pyridin-5-yl)-N-(4-methoxyphenyl)pyrazin-2-amine], for which the melting point was in the range of 223 to 225 °C. For the same molecule, the EC50 in the data set on Bmi-1 protein (setting [1]) lay in the range of 10 to 100 nM.

Take `CCc1nc(C)cn1-c1cncc(Nc2ccc(OC(F)F)cc2)n1` [compound 180, N-[4-(difluoromethoxy)phenyl]-6-(2-ethyl-4-methyl-1H-imidazol-1-yl)pyrazin-2-amine]: the melting point is 168 to 169 °C. Moreover, in the data set with Bmi-1 protein (setting [1]), the EC50 fell in the range of 100 to 3000 nM.

`N#Cc1cc(Nc2ccc(OC(F)F)c(F)c2)nc(-c2c(C3CC3)nc3ccc(F)cn23)c1` [compound 349, 2-(2-cyclopropyl-6-fluoroimidazo[1,2-a]pyridin-3-yl)-6-{[4-(difluoromethoxy)-3-fluorophenyl]amino}pyridine-4-carbonitrile] showed a melting point of 185 to 186 °C. For the same molecule, the EC50 with Bmi-1 protein (setting [1]) was 10 to 100 nM.

Molecule `N#Cc1cc(Nc2ccc(OC(F)F)nc2)nc(-n2c(C3CC3)nc3c(F)cc(F)cc32)c1` [compound 478, 2-(2-cyclopropyl-4,6-difluoro-1H-benzimidazol-1-yl)-6-{[6-(difluoromethoxy)pyridin-3-yl]amino}pyridine-4-carbonitrile] showed a melting point of 207 to 209 °C. In addition, in the data set with Bmi-1 protein (setting [1]), the EC50 is 10 to 100 nM.

Molecule `FC(F)(F)c1ccc(Nc2cncc(-c3cccc4nc(C5CCC5)cn34)n2)cc1` [compound 114, 6-(2-cyclobutylimidazo[1,2-a]pyridin-5-yl)-N-[4-(trifluoromethyl)phenyl]pyrazin-2-amine] had a melting point of 288 to 290 °C. Moreover, the EC50 in the data set with Bmi-1 protein (setting [1]) fell in the range of 100 to 3000 nM.

On to `Nc1cc(Nc2ccc(OC(F)F)c(F)c2)nc(-c2c(C3CC3)nc3ccc(F)cn23)c1` [compound 366, 6-(2-cyclopropyl-6-fluoroimidazo[1,2-a]pyridin-3-yl)-N^2-[4-(difluoromethoxy)-3-fluorophenyl]pyridine-2,4-diamine], for which the melting point was 169 to 170 °C. Also, in the data set on Bmi-1 protein (setting [1]), the EC50 fell in the range of 100 to 3000 nM.

For `CCc1nn(C)c(CC)c1-c1cncc(Nc2ccc(OC(F)(F)F)cc2)n1` [compound 334, 6-(3,5-diethyl-1-methyl-1H-pyrazol-4-yl)-N-[4-(trifluoromethoxy)phenyl]pyrazin-2-amine], the melting point is 122 to 123 °C. Moreover, the EC50 with Bmi-1 protein (setting [1]) lay in the range of 10 to 100 nM.

Molecule `Cc1nc2c(F)cc(F)cn2c1-c1cc(C#N)cc(Nc2ccc(C(F)(F)F)cc2)n1` [compound 441, 2-(6,8-difluoro-2-methylimidazo[1,2-a]pyridin-3-yl)-6-{[4-(trifluoromethyl)phenyl]amino}pyridine-4-carbonitrile] registered a melting point of 243 to 245 °C. Moreover, in the data set with Bmi-1 protein (setting [1]), the EC50 lay within 1 to 10 nM.

`[O-][n+]1cc(Nc2ccc(C(F)(F)F)cc2)nc(-c2c(C3CC3)nn3ccc(F)cc23)c1` [compound 536, 6-(2-cyclopropyl-5-fluoropyrazolo[1,5-a]pyridin-3-yl)-N-[4-(trifluoromethyl)phenyl]pyrazin-2-amine 4-oxide] showed a melting point of 183 to 186 °C. Also, the EC50 with Bmi-1 protein (setting [1]) fell in the range of 10 to 100 nM.

Consider `Nc1cc(Nc2ccc(OC(F)F)cc2)nc(-c2c(C3CC3)nc3ccc(F)cn23)c1` [compound 365, 6-(2-cyclopropyl-6-fluoroimidazo[1,2-a]pyridin-3-yl)-N^2-[4-(difluoromethoxy)phenyl]pyridine-2,4-diamine], for which the melting point was 185 to 186 °C. Moreover, the EC50 in the data set on Bmi-1 protein (setting [1]) was in the range of 100 to 3000 nM.

In the case of `Cc1nc(Nc2cccc(-c3c(C(F)(F)F)nc4ccccn34)n2)sc1C` [compound 149, N-(4,5-dimethyl-1,3-thiazol-2-yl)-6-[2-(trifluoromethyl)imidazo[1,2-a]pyridin-3-yl]pyridin-2-amine], the melting point lay within 227 to 228 °C. In addition, the EC50 with Bmi-1 protein (setting [1]) lay in the range of 100 to 3000 nM.

Regarding `Cc1nc2ccc(F)cc2n1-c1cncc(Nc2ccc(C(F)(F)F)cc2)n1` [compound 228, 6-(6-fluoro-2-methyl-1H-benzimidazol-1-yl)-N-[4-(trifluoromethyl)phenyl]pyrazin-2-amine], the melting point lay within 243 to 245 °C. Further, in the data set with Bmi-1 protein (read-out: ELISA EC50 value for Bmi-1 protein, Table 1, Bmi-1 sandwich ELISA), the EC50 fell in the range of 1 to 10 nM.

For `N#Cc1cc(Nc2ccc(OC(F)F)cc2)nc(-n2c(C3CC3)nc3c(F)cc(F)cc32)c1` [compound 475, 2-(2-cyclopropyl-4,6-difluoro-1H-benzimidazol-1-yl)-6-{[4-(difluoromethoxy)phenyl]amino}pyridine-4-carbonitrile], the melting point was 168 to 170 °C. The EC50 with Bmi-1 protein (setting [1]) is 10 to 100 nM.

For the molecule `Cc1nc2ccc(F)cn2c1-c1cncc(Nc2ccc(F)cc2)n1` [compound 591, 6-(6-fluoro-2-methylimidazo[1,2-a]pyridin-3-yl)-N-(4-fluorophenyl)pyrazin-2-amine], the melting point was 208 to 210 °C. For the same molecule, in the data set on Bmi-1 protein (setting [1]), the EC50 fell in the range of 100 to 3000 nM.

Molecule `CCc1nc2ccc(F)cc2n1-c1cncc(Nc2ccc(C(F)(F)F)cc2)n1` [compound 259, 6-(2-ethyl-6-fluoro-1H-benzimidazol-1-yl)-N-[4-(trifluoromethyl)phenyl]pyrazin-2-amine] came in with a melting point of 267 to 269 °C. Also, in the data set with Bmi-1 protein (setting [1]), the EC50 lay within 1 to 10 nM.

On to `Cc1csc(Nc2cncc(-c3c(C(F)(F)F)nc4ccccn34)n2)n1` [compound 96, N-(4-methyl-1,3-thiazol-2-yl)-6-[2-(trifluoromethyl)imidazo[1,2-a]pyridin-3-yl]pyrazin-2-amine], for which the melting point was in the range of 317 to 319 °C. The EC50 in the data set on Bmi-1 protein (setting [1]) was 100 to 3000 nM.

For `Cc1nn(C)c(C)c1-c1cc(C#N)cc(Nc2ccc(OC(F)F)cc2)n1` [compound 264, 2-{[4-(difluoromethoxy)phenyl]amino}-6-(1,3,5-trimethyl-1H-pyrazol-4-yl)pyridine-4-carbonitrile], the melting point lay within 144 to 145 °C. Further, the EC50 with Bmi-1 protein (setting [1]) was 1 to 10 nM.

`Cc1cnc(Nc2cccc(-c3c(C(F)(F)F)nc4ccccn34)n2)s1` [compound 147, N-(5-methyl-1,3-thiazol-2-yl)-6-[2-(trifluoromethyl)imidazo[1,2-a]pyridin-3-yl]pyridin-2-amine] registered a melting point of 270 to 271 °C. The EC50 in the data set with Bmi-1 protein (setting [1]) was 100 to 3000 nM.
